This note sets out measurements from US11440918B2, “p38α mitogen-activated protein kinase inhibitors” (priority 2020, dated 2022).

Bounds are passed on as bounds.

For data set [1] the following is noted: 10 μM.
The subject of data set [2] is SARS-CoV-2, isolate USA-WA1/2020 (SARS-CoV-2 New York). The data set can be described thus: SARS-CoV-2 anti-viral assay New York (N-protein staining). The settings on record: Severe acute respiratory syndrome coronavirus 2; SARS-CoV-2 New York isolate, 48 hours; read-out: Anti-Viral NY IC50. It is filed as cell-based.
Another data set deals with p38β (Homo sapiens (Human), UniProt Q15759). The data set can be described thus: Surface plasmon resonance (SPR) assay, Biacore T200.
Chain of p38β (Q15759 whole entry): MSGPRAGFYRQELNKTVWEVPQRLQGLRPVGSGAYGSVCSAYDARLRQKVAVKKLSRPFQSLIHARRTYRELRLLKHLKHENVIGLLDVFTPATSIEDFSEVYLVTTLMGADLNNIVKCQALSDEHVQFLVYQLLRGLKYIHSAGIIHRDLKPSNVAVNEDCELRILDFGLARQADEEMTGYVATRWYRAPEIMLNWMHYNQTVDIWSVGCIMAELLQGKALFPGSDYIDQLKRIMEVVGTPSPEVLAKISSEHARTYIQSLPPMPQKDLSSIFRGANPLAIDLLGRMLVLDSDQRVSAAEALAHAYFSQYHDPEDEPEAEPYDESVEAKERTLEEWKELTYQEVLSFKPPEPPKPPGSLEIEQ
The subject of data set [3] is SARS-CoV-2 isolate BetaCoV/France/IDF0372/2020 (SARS-CoV-2 Paris). In words: SARS-CoV-2 anti-viral assay Paris (viral genomes by RT-qPCR). The settings on record: Severe acute respiratory syndrome coronavirus 2; SARS-CoV-2 Paris isolate, 48 hours. It is filed as cell-based. (Quantitative PCR measures a nucleic acid by following its amplification.)
Data set [4] shares this test system. In words: Viral quantification via plaque assay in Paris. It is filed as cell-based. Particulars: Severe acute respiratory syndrome coronavirus 2.
For data set [5] the following is noted: 10 μM. This is another data set of the same source.
The subject of the next data set is SARS-CoV-2. The data set can be described thus: microbe, parasite or virus in culture. It is filed as cell-based. Particulars: Severe acute respiratory syndrome coronavirus 2, read-out: IC50 for anti-SARS-CoVID-19 activity.
The conditions of data set [6]: 10 μM. The source holds these as a separate data set.

For the molecule `O=C(Nc1ccc(CN2CCCOCC2)cc1)c1ccc(Cl)cc1` [Compound 1, N-(4-((1,4-oxazepan-4-yl)methyl)phenyl)-4-chlorobenzamide], the “stable in rat plasma” value in data set [1] was “at least 4 hours”. For the same molecule, the IC50 was 700 nM in data set [2], 600 nM in data set [3], 1800 nM in data set [4] and under 10000 nM with SARS-CoV-2. In addition, the Kd at p38β is under 10 nM. For the same molecule, the “stable in monkey plasma” value in data set [5] was “at least 4 hours”. Also, in data set [6], the “stable in human plasma” value is “at least 4 hours”.

As to `O=C(Nc1ccc(CN2CC3(COC3)C2)cc1)c1ccc(Cl)cc1` [Compound 2, N-(4-((2-oxa-6-azaspiro[3.3]heptan-6-yl)methyl)phenyl)-4-chlorobenzamide], the IC50 in data set [2] was 1200 nM; in data set [3] it was 7800 nM; in the data set on SARS-CoV-2, under 10000 nM.

Take `O=C(Nc1ccc(CN2CCOCC2)cc1)c1cnc(Cl)nc1` [Compound 3, 2-chloro-N-(4-(morpholinomethyl)phenyl)pyrimidine-5-carboxamide]: the IC50 in data set [2] is 1200 nM; in data set [3], 9400 nM; in the data set on SARS-CoV-2, under 10000 nM.

Take `O=C(Nc1ccc(CN2CC3(CCOCC3)C2)cc1)c1ccc(Cl)cc1` [Compound 4, N-(4-((7-oxa-2-azaspiro[3.5]nonan-2-yl)methyl)phenyl)-4-chlorobenzamide]: the IC50 in data set [2] is 700 nM; in data set [3], 2100 nM; in data set [4], 1400 nM; with SARS-CoV-2, under 10000 nM.

With `O=C(Nc1ccc(CN2CCC3(CCCO3)C2)cc1)c1ccc(Cl)cc1` (stereo not drawn) [Compound 6, N-(4-((1-oxa-7-azaspiro[4.4]nonan-7-yl)methyl)phenyl)-4-chlorobenzamide], in data set [1], the “stable in rat plasma” value was “at least 4 hours”. Besides, the IC50 is 6400 nM in data set [2], 2900 nM in data set [3] and under 10000 nM in the data set on SARS-CoV-2. Besides, on p38β, the Kd is under 10 nM. In data set [5], the “stable in monkey plasma” value was “at least 4 hours”. Further, the “stable in human plasma” value in data set [6] is “at least 4 hours”.

On to `C[C@H]1CN(Cc2ccc(NC(=O)c3ccc(Cl)cc3)cc2)C[C@H](C)O1` [Compound 8, 4-chloro-N-(4-(((2S,6S)-2,6-dimethylmorpholino)methyl)phenyl)benzamide], for which the “stable in rat plasma” value in data set [1] is reported as “at least 4 hours”. This molecule also gave a Kd at p38β of under 10 nM. Further, the “stable in monkey plasma” value in data set [5] is “at least 4 hours”. Also, the IC50 with SARS-CoV-2 is under 10000 nM. Also, the “stable in human plasma” value in data set [6] is recorded as “at least 4 hours”.

For `O=C(Nc1ccc(CN2C[C@@H]3COC[C@@H](C3)C2)cc1)c1ccc(Cl)cc1` [Compound 9, N-(4-(((1R,5S)-3-oxa-7-azabicyclo[3.3.1]nonan-7-yl)methyl)phenyl)-4-chlorobenzamide], in data set [3], half-maximal inhibition (IC50) required 3100 nM.

In the case of `O=C(Nc1ccc(CN2C[C@H]3COC[C@H]3C2)cc1)c1ccc(Cl)cc1` [Compound 10, 4-chloro-N-(4-(((3aR,6aS)-tetrahydro-1H-furo[3,4-c]pyrrol-5(3H)—1)methyl)phenyl)benzamide], in data set [1], the “stable in rat plasma” value is recorded as “at least 4 hours”. The IC50 is 200 nM in data set [2], 1300 nM in data set [3] and 2800 nM in data set [4]. In addition, in data set [5], the “stable in monkey plasma” value is “at least 4 hours”. Besides, in data set [6], the “stable in human plasma” value is listed as “at least 4 hours”.

As for `O=C(Nc1ccc(CN2CCC(O)CC2)cc1)c1ccc(Cl)cc1` [Compound 11, 4-chloro-N-(4-((4-hydroxypiperidin-1-yl)methyl)phenyl)benzamide], the IC50 was 200 nM in data set [2], 1600 nM in data set [3], 2100 nM in data set [4] and under 10000 nM in the data set with SARS-CoV-2.

In the case of `O=C(Nc1ccc(CN2CCC(O)C2)cc1)c1ccc(Cl)cc1` (stereo not drawn) [Compound 13, 4-chloro-N-(4-((3-hydroxypyrrolidin-1-yl)methyl)phenyl)benzamide], the IC50 in data set [3] was 3400 nM; in the data set on SARS-CoV-2 it was under 10000 nM.

In the case of `CC(=O)N1CCN(Cc2ccc(NC(=O)c3ccc(Cl)cc3)cc2)CC1` [Compound 14, N-(4-((4-acetylpiperazin-1-yl)methyl)phenyl)-4-chlorobenzamide], the “stable in rat plasma” value in data set [1] is reported as “at least 4 hours”. Also, the Kd at p38β was under 10 nM. Moreover, in data set [5], the “stable in monkey plasma” value is recorded as “at least 4 hours”. The “stable in human plasma” value in data set [6] is given as “at least 4 hours”.

Turning to `CN1CCN(Cc2ccc(NC(=O)c3ccc(Cl)cc3)cc2)CC1` [Compound 17, 4-chloro-N-(4-((4-methylpiperazin-1-yl)methyl)phenyl)benzamide], the IC50 in data set [2] was 700 nM; in data set [3] it was 3600 nM; in data set [4] it was 2700 nM; with SARS-CoV-2, under 10000 nM.

Usually IC50 stands for the concentration that gives 50% inhibition. In general, Kd refers to the concentration at which binding is half-saturated.
